# From paper PMC10145360, “Antiplatelet Aggregation Properties of Cirsilineol: A Novel Inhibitor of Blood Coagulation Factor Xa” (Pharmaceuticals, 2023)
# How the values were obtained:
# [1] = test system: myristoylated alanine-rich C kinase substrate (MARCKS) in human platelets; experiment: MARCKS phosphorylation (PKC activation), western blotting; format: cell-based; details: CSL 10 or 20 μM; ADP 10 μM or U46619 6 μM
# Experimental: Figure 6 Effects of CSL on activation of protein kinase CPKC activation and mobilization of intracellular calcium. (A) Rinsed platelets were incubated with DMSO or CSL (10 or 20 μM) for 10 min at 37 °C, and stimulation of ADP (10 μM, left) or U46619 (6 μM, right) was given for 1 min. The phosphorylation level of MARCKS in the platelets was determined with western blotting. Representative images from each group are shown (n = 3). Densitometric intensities of each signaling pathway component normalized to β-actin or total protein. (B,C) Human platelets preloaded with Fura-2 were incubated with DMSO (D) or CSL with extracellular Ca^2+ (1 mM) for 10 min at 37 °C, and ADP ((B) 10 μM) or U46619 ((C) 6 μM) stimulation was given to induce an increase in [Ca^2+]i. Data are shown as mean values ± SD of five independent experiments. * p < 0.05 vs. ADP (A,B) or U46619 (A,C) alone. D = 0.2% DMSO, used as the vehicle control.
# SDS-PAGE was used to isolate identical amounts of protein from the […] extracts, and the protein was then electrotransferred onto an immobilon membrane (Millipore, Billerica, MA, USA). The membranes underwent blocking, anti-phospho-MARCKS (Santa Cruz, CA, USA) incubation for 1.5 h at room temperature, HRP-conjugated secondary antibody incubation, and ECL detection. […]
# [2] = test system: platelet-poor plasma (PPP); experiment: In vitro aPTT clotting time in platelet-poor plasma; design: species or system human
# Experimental: (§1) Figure 2 Effects of CSL on clotting time. (A) Platelet-poor plasma (PPP) was incubated with the indicated concentrations of CSL or rivaroxaban (Riva) for 15 min. (B) One hour after administering DMSO, CSL, or Riva, blood was collected from the mice, and PPP was obtained. Then, in vitro aPTT (A) or ex vivo aPTT was measured, as described in the Methods sections. Data are shown as mean values ± SD of five independent experiments. * p < 0.05 vs. D. D = 0.2% DMSO, used as the vehicle control.
# Ten fasting healthy volunteers (aged 24–28; six women and four men) who were free of allergies, cardiovascular problems, carbohydrate, or lipid metabolic abnormalities and had not taken any morning medication had their blood samples taken. None of our subjects used addictive drugs or antioxidant food supplements, and their diets were well balanced. The plasma from the blood samples was immediately spun down (1300× g for 15 min) to separate it from sodium citrate (10.9 mM) and pooled for the following investigations. Next, human blood samples were spun down at room temperature to rapidly separate the PRP. The PRP concentration was adjusted to 1 × 10^9 platelets/mL using a hemocytometer. After being rinsed once in HEPES buffer containing 1 mM CaCl2, the PRP pellet was maintained at room temperature for an additional 30 min. Then, 10 mL of the platelet samples were utilized to measure each clotting time point. The IRB of Kyungpook National University Hospital (Daegu, Republic of Korea) approved this study protocol (KNUH 2012-01-010).
# Plasma was taken by centrifuging blood (2000× g for 10 min) at room temperature following dimethyl sulfoxide (DMSO) or CSL administration for 1 h to assess PT and aPTT using a thrombotimer (Behnk Elektronik, Norderstedt, Germany). Micronized silica was utilized as an activator for the aPTT test. Briefly, 100 μL of platelet-poor plasma (PPP) and 100 μL of aPTT assay reagent were combined for 1 min at 37 °C, 100 µL of CaCl2 (20 mM) was added, and the clotting times were noted. […] Next, the clotting time was measured.
# [3] = test system: platelet-poor plasma (PPP); experiment: Ex vivo aPTT clotting time after intravenous injection; format: in vivo, mouse; details: mice
# Experimental: First, the potential cytotoxicity of […] on HUVECs was assessed using the 3-(4,5-dimethylthiazol-2-yl)-2,5-diphenyltetrazolium bromide (MTT) assay. […] The activated partial thromboplastin time (aPTT) and prothrombin time (PT), two coagulation parameters altered by CSL in vitro, were assessed first. We used the direct FXa inhibitor rivaroxaban as a positive control for our experiments. […] In the aPTT experiments, rivaroxaban at 8.38 μM and CSL at 7.23 μM, respectively, doubled the clotting time. Each mouse group (n = 5) received intravenous injections of CSL for 4 consecutive days to validate the in vitro results in an ex vivo experiment. […] In the ex vivo aPTT assays, treatment with CSL at 0.25 mg/kg and rivaroxaban at 0.29 mg/kg, respectively, doubled the clotting time. The average blood volume was determined to be 2 mL based on an estimated circulating blood volume for mice of 72 mL/kg and an average weight of 27 g for each animal used in this investigation. As a result, the estimated concentration of CSL in the peripheral blood after each injection ([…]) was 2.5, 5, 10, or 20 μM, respectively.
# as §1
# Male C57BL/6 mice aged 7 weeks (mean weight: 27 g) were purchased from Orient Bio Co., in Sungnam, Republic of Korea, and were subjected to a 12-day acclimatization phase. […]
# Plasma was taken by centrifuging blood (2000× g for 10 min) at room temperature following dimethyl sulfoxide (DMSO) or CSL administration for 1 h to assess PT and aPTT using a thrombotimer (Behnk Elektronik, Norderstedt, Germany). […] Next, the clotting time was measured.
smiles,measurement,setting,value
"COc1cc(-c2cc(=O)c3c(O)c(OC)c(OC)cc3o2)ccc1O [CSL, 4,5-dihydroxy-3,6,7-trimethoxyflavone]",MARCKS phosphorylation in response to ADP and U46619,[1],prevented MARCKS from becoming phosphorylated
same,concentration that doubled the clotting time (in vitro aPTT),[2]; PPP incubated 15 min,7.23 µM
same,aPTT in vitro,[2]; doses between 5 and 20 M,considerably slowed the aPTT
same,dose that doubled the clotting time (ex vivo aPTT),[3]; intravenous,0.25 mg/kg
same,blood clotting time ex vivo (aPTT),[3]; intravenous injections for 4 consecutive days,dramatically increased blood clotting time
